Test results reported in patent publication US12043614B2, “Salts of a Pim kinase inhibitor” (Incyte Corporation, priority 2015, dated 2024).
Structures can show the parent of a compound that is named as a salt. Blank lines part the entries; values can stand above or below the compound they belong to.

How the values were obtained:
pBAD in MOLM-16 cell = assay: pBAD signaling assay in human whole blood, MOLM16 cells; format: cell-based; conditions: read-out: IC50 pBAD whole blood (Ex. B, MOLM16 cells)
pBAD in KMS12BM cells [1] = assay: pBAD signaling assay in human whole blood, KMS12BM cells; format: cell-based; conditions: KMS-12-BM, read-out: IC50 pBAD whole blood (Ex. B, KMS12BM cells)
Pim-1 = biological target: T1, Pim-1 (Homo sapiens, UniProt P11309); assay: Pim-1 kinase assay; format: biochemical; conditions: 1 mM ATP; read-out: IC50 PIM1 Enzyme (Ex. A)
T1 construct: purchased Invitrogen PV3503
T1 sequence (P11309 whole entry): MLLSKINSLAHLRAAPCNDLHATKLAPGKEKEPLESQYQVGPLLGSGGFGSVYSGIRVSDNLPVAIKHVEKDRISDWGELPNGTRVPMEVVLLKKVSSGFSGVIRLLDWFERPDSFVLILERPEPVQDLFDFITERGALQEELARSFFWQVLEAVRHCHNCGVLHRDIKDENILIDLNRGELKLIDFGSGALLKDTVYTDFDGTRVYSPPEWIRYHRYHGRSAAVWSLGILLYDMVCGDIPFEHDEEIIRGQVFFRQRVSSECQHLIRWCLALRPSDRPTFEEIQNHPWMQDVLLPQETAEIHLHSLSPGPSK
Protocol: Pim-1 and Pim-3 kinase assays—20 μL reactions can be run in white 384 well polystyrene plates dotted with 0.8 μL compound/DMSO in the assay buffer (50 mM Tris, pH 7.5, 0.01% Tween-20, 5 mM MgCl2, 0.01% BSA, 5 mM DTT), containing 0.05 μM Biotin-labeled BAD peptide substrate (AnaSpec 62269), 1 mM ATP, and 2.5 pM (Pim-1, Invitrogen PV3503) or 1.25 pM (Pim-3, Millipore 14-738) enzyme for 1 h at 25° C. Reactions are stopped by addition of 10 μL STOP Buffer (150 mM Tris, pH=7.5, 150 mM NaCl, 75 mM EDTA, 0.01% Tween-20, 0.3% BSA) supplemented with Phospho-Bad (Ser112) Antibody (Cell Signaling 9291) diluted 666-fold, and Streptavidin donor beads (PerkinElmer 6760002) along with Protein-A acceptor beads (PerkinElmer 6760137) at 15 μg/mL each. Supplementation of the STOP buffer with beads and stopping the reactions are done under reduced light. Prior to the stopping reactions STOP buffer with beads is pre-incubated for 1 h in the dark at room temperature. After stopping the reactions, plates are incubated for 1 h in the dark at room temperature before reading on a PHERAstar FS plate reader (BMG Labtech) under reduced light.

MOLM16 cells = assay: Pim cell proliferation assay ([3H]-thymidine), MOLM16; format: cell-based; conditions: read-out: IC50 Tumor cell proliferation (Ex. B, MOLM16 cells)
Protocol: (§1) KM[…] and MOLM16 cells were purchased from DSMZ (Germany) and were maintained according to the recommendations of suppliers. To measure the anti-proliferation activities of test compounds, the cells were plated in their respective culture medium (2×10^3 cells/200 μL/well) into 96-well ultralow binding plates (Corning), with or without test compound(s). After 3 to 4 days, [3H]-thymidine (1 μCi/well) (PerkinElmer) in PBS (10 μL) was then added to the cell culture for an additional 12 hours before the incorporated radioactivity was separated by filtration with water through GF/B filters (Packard Bioscience) and measured by liquid scintillation counting with a TopCount (Packard Bioscience).

pBAD in KMS12BM cells [2] = assay: Pim pBAD signaling assay in KMS12BM cells; format: cell-based; conditions: Homo sapiens, KMS-12-BM, 2.5 hours, read-out: IC50 pBAD KMS12BM cells (Ex. B)
Pim-2 = biological target: T2, Pim-2 (Homo sapiens, UniProt Q9P1W9); assay: Pim-2 kinase assay; format: biochemical; conditions: 1 mM ATP; read-out: IC50 PIM2 Enzyme (Ex. A)
T2 construct: purchased Invitrogen PV3649
T2 sequence (Q9P1W9 whole entry): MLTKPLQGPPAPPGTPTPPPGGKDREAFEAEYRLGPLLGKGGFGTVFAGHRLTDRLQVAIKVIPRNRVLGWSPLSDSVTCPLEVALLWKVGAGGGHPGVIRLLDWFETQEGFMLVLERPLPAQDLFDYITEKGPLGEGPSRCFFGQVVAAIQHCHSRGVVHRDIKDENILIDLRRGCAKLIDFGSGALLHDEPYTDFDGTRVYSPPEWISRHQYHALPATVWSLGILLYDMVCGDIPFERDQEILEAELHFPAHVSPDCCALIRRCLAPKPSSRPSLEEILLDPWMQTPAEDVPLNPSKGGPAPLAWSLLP
Protocol: Pim-2 kinase assay—20 μL reactions are run in white 384 well polystyrene plates dotted with 0.8 μL compound/DMSO in the assay buffer (50 mM Tris, pH 7.5, 0.01% Tween-20, 5 mM MgCl2, 0.01% BSA, 5 mM DTT), containing 0.05 μM Fluorescein-labeled CREBtide peptide substrate (Invitrogen PV3508), 1 mM ATP, and 1 nM enzyme (Invitrogen PV3649) for 2 h at 25° C. Reactions are stopped by addition of 10 μL TR-FRET Dilution Buffer (Invitrogen PV3574) with 30 mM EDTA and 1.5 nM LanthaScreen Tb-CREB pSer133 antibody (Invitrogen PV3566). After 30 min. incubation at room temperature, plates are read on a PHERAstar FS plate reader (BMG Labtech).

KMS12BM cells = assay: Pim cell proliferation assay ([3H]-thymidine), KMS12BM; format: cell-based; conditions: Homo sapiens, KMS-12-BM; read-out: IC50 Tumor cell proliferation (Ex. B, KMS12BM cells)
Protocol: as §1

Pim-3 = Pim-3 (Homo sapiens, UniProt Q86V86); assay: Pim-3 kinase assay; format: biochemical; conditions: 1 mM ATP; read-out: IC50 PIM3 Enzyme (Ex. A)
[3] = Competitive stability study (slurry of Forms I-VI, XRPD); format: physicochemical; conditions: 2 days, room temperature
Protocol: To evaluate the transformation of Compound 1 phosphate solid forms, competitive slurry experiments were performed as follows: to a saturated solution (1.5 mL) of Compound 1 phosphate Form I in the solvent as listed in Table 14 was added Form I (6 mg), followed by stirring to give a cloudy solution, then 6 mg each of Form II through Form VI were added to the mixture. The slurry was stirred for 2 days at room temperature and analyzed by XRPD.

PIM kinase = assay: Pim enzyme assays (isoform not given); format: biochemical; conditions: 1 mM ATP; Pim isoform not stated
[4] = Stability study under phase equilibration conditions (XRPD); format: physicochemical; conditions: 2-3 days, all solvents and solvent mixtures tested
Protocol: Phase equilibration studies were designed to provide information on a predominant crystal form for phase identification. Compound 1 phosphoric acid salt (Form I) was equilibrated in a representative group of solvents at 25±1° C. (chloroform, DMF, 1,4-dioxane, methanol and methanol/20% water, 2-methoxyethanol and 2-methoxyethanol/20% water, MIBK, THF and THF/20% water, acetone, n-BuOH and n-BuOH/20% water, EtOH and EtOH/20% water, isobutyl acetate, 1-propanol and 1-propanol/20% water, isopropanol, water, and MEK) and 50±1° C. (chloroform, DMF, 1,4-dioxane, methanol and methanol/20% water, 2-methoxyethanol and 2-methoxyethanol/20% water, MIBK, THF and THF/20% water, acetone, n-BuOH and n-BuOH/20% water, EtOH and EtOH/20% water, EtOAc, ethyl formate, 1-propanol and 1-propanol/20% water, isopropanol, IPA/MeOH/Water (1.73/0.79/0.08), IPA/water (3/2), water) controlled by IKA® ETS-D5 temperature controller and IKA® RCT basic safety control.
To 3 mL of a solvent or a mixture of solvents (chosen from a list for the respective temperature) was added Compound 1 phosphate (Form I) until a cloudy solution was obtained, then, about 30 mg of Compound 1 phosphate (Form I) was added to the cloudy solution. The mixture was stirred at 25±1° C. or 50±1° C., respectively, for 2-3 days. The solid was filtered and analyzed by XRPD. […]

[5] = Stability study of Form I under environmental conditions (XRPD); format: physicochemical
Source text: Compound 1 phosphoric acid salt Form I was subjected to various different environmental conditions to assess stability.

- IC50 (pBAD in MOLM-16 cell): < 100 nM
- IC50 (pBAD in KMS12BM cells [1]): < 200 nM
- IC50 (Pim-1): < 35 nM
- IC50 (MOLM16 cells): < 35 nM
- IC50 (pBAD in KMS12BM cells [2]): < 35 nM
- IC50 (Pim-2): < 35 nM
- IC50 (Pim-3): < 35 nM
SMILES: C[C@H]1CN(c2c(NC(=O)c3ccc(F)c(-c4c(F)cccc4F)n3)cnc3c2CC[C@H]3O)C[C@@H](N)[C@@H]1O [Compound 1 di-HCl salt, N-{(7R)-4-[(3R,4R,5S)-3-amino-4-hydroxy-5-methylpiperidin-1-yl]-7-hydroxy-6,7-dihydro-5H-cyclopenta[b]pyridin-3-yl}-6-(2,6-difluorophenyl)-5-fluoropyridine-2-carboxamide dihydrochloride]
- IC50 (KMS12BM cells): < 100 nM

- Solid state form ([3]; IPA/MeOH/water/DMSO (56.6/28.3/3.0/12.1)): Form I
- Solid state form ([3]; IPA/MeOH/water/DMSO (61.8/28.2/2.9/7.1)): Form I
SMILES: C[C@H]1CN(c2c(NC(=O)c3ccc(F)c(-c4c(F)cccc4F)n3)cnc3c2CC[C@H]3O)C[C@@H](N)[C@@H]1O [Compound 1 H3PO4 salt, N-{(7R)-4-[(3R,4R,5S)-3-amino-4-hydroxy-5-methylpiperidin-1-yl]-7-hydroxy-6,7-dihydro-5H-cyclopenta[b]pyridin-3-yl}-6-(2,6-difluorophenyl)-5-fluoropyridine-2-carboxamide phosphoric acid salt]

- IC50 (PIM kinase): < 100 nM
SMILES: C[C@H]1CN(c2c(NC(=O)c3ccc(F)c(-c4c(F)cccc4F)n3)cnc3c2CC[C@H]3O)C[C@@H](N)[C@@H]1O [Compound 1, N-{(7R)-4-[(3R,4R,5S)-3-amino-4-hydroxy-5-methylpiperidin-1-yl]-7-hydroxy-6,7-dihydro-5H-cyclopenta[b]pyridin-3-yl}-6-(2,6-difluorophenyl)-5-fluoropyridine-2-carboxamide]

- Solid form after phase equilibration (XRPD) ([4]; 25±1° C.): Form I
- Solid form after phase equilibration (XRPD) ([4]; 50±1° C.): Form I
- Crystalline Form (XRPD) ([5]; 40° C./75% RH for 1 week): Form I
- Crystalline Form (XRPD) ([5]; 50° C. vacuum dry for 1 day): Form I
- Crystalline Form (XRPD) ([5]; 100° C. vacuum dry for 1 day): Form I
- Crystalline Form (XRPD) ([5]; 210° C. vacuum dry followed by 40° C./75% RH for 4 weeks): Form I
- Crystalline Form (XRPD) ([5]; 210° C. vacuum dry for 20 min): Not Form I
- Crystalline Form (XRPD) ([5]; Suspension in 0.5% methyl cellulose in water): Form I
SMILES: C[C@H]1CN(c2c(NC(=O)c3ccc(F)c(-c4c(F)cccc4F)n3)cnc3c2CC[C@H]3O)C[C@@H](N)[C@@H]1O [Compound 1 phosphoric acid salt Form I, N-{(7R)-4-[(3R,4R,5S)-3-amino-4-hydroxy-5-methylpiperidin-1-yl]-7-hydroxy-6,7-dihydro-5H-cyclopenta[b]pyridin-3-yl}-6-(2,6-difluorophenyl)-5-fluoropyridine-2-carboxamide phosphoric acid salt]
